Experimental data: BindingDB's records for doi:10.7270/Q269721H (Nmmlsc, 2010)

What follows are molecules tested against Guanine nucleotide-binding protein G(o) subunit alpha (Homo sapiens, UniProt P09471) (assay: RGS7-Galphao interaction regulators, SAR follow-up, multiplexed assay, additional SAR round (AID 2826)).
Chain of Guanine nucleotide-binding protein G(o) subunit alpha (P09471 whole entry): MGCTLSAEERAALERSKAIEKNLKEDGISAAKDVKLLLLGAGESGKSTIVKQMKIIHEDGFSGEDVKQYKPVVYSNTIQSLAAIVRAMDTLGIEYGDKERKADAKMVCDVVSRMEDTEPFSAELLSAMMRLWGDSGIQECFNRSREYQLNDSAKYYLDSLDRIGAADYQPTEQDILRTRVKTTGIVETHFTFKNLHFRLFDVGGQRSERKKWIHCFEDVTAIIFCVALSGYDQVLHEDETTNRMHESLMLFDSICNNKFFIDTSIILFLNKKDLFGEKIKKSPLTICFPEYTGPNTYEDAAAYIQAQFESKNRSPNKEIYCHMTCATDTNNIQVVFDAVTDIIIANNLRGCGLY

EC50, > 30 µM:
O=C(c1sc2cc([N+](=O)[O-])ccc2c1Cl)N1CCNCC1
O=C(NCCCN1CCOCC1)c1sc2cc([N+](=O)[O-])ccc2c1Cl [3-chloranyl-N-(3-morpholin-4-ylpropyl)-6-nitro-1-benzothiophene-2-carboxamide]
O=C(NCCCn1ccnc1)c1sc2cc([N+](=O)[O-])ccc2c1Cl [3-chloro-N-[3-(1-imidazolyl)propyl]-6-nitro-1-benzothiophene-2-carboxamide]
NC(=O)c1sc2cc([N+](=O)[O-])ccc2c1Cl [KSC-1-100]
Cc1ccc2c(Cl)c(C(=O)NCCCN3CCOCC3)sc2c1 [KUC103874N]
